# Data published in article PMC12332266 (Frontiers in Pharmacology, 2025).
# Read-outs that look alike come from different tables or passages of the source.
# Columns and labels:
# [1] = system: hiPSC-CM (iCell Cardiomyocytes^2); assay: Intracellular miRNA expression by RT-qPCR in hiPSC-CM pellets after 72-hour treatment; conditions: for fold induction at 0.01 µM / fold induction at 0.03 µM / fold induction at 0.1 µM / fold induction at 0.3 µM / fold induction at 1 µM / fold induction at 3 µM: Homo sapiens
# Method: (§1) Culture media change was performed every 2 days.
# Total RNA was extracted from hiPSC-CM using the miRNeasy 96 Kit (Qiagen, Hilden, Germany) following the manufacturer’s recommendations. After the extraction, RNA purity was assessed by NanoDrop™ 8000 Spectrophotometer (Thermo Fisher Scientific Inc.). 5–10 ng/μL of RNA per sample were reverse transcribed and pre-amplified by using the TaqMan™ Advanced miRNA cDNA Synthesis Kit (Thermo Fisher Scientific Inc.). The synthesized cDNA was used for RT-qPCR with selected TaqMan™ assays (Thermo Fischer Scientific Inc.). RT-qPCR was carried out following the Applied Biosciences TaqMan miRNA expression assay protocol on a ViiA7 instrument (Thermo Fisher Scientific, Inc.). […] Therefore, to maximize the number of drugs and concentrations, explored in the same study, we pooled the triplicates for intracellular profiling of miRNAs. Therefore, no statistical analysis was performed on the data of miRNA profiling in the pellets of hiPSC-CM.
# Following RTCA CardioECR assessment, hiPSC-CM cell pellets were collected, and total RNA was extracted and purified to investigate miRNAs upregulation by RT-qPCR. […] For the initial assessment of intracellular miRNAs in 12 different treatments, encompassing various drug classes, we used a panel of 17 miRNAs, which we selected from the publicly available data focusing mainly on in vitro models and structural cardiotoxicants (Supplementary Table S2).
# [2] = system: hiPSC-CM (iCell Cardiomyocytes^2); assay: RTCA CardioECR assessment (impedance and electrophysiology parameters)
# Method: as §1
# After seeding on fibronectin-coated xCELLigence ePlates (Agilent Technologies, Inc. Santa Clara, CA, USA), iCell^2 CM were monitored continuously through impedance electrodes. The following impedance parameters were measured: Cell Index (CI, measure of cell “health” and monolayer integrity), beating rate (BR) and amplitude (CI Amplitude, magnitude of contraction). Electrophysiology-like parameters (Field Potential Duration (FPD), considered as a surrogate for QT in in vivo studies, and Spike Amplitude (SA), depolarization induced by Na^+ channel opening) were measured starting from day 4–6, following the monolayer formation. […] All RTCA CardioECR data were double normalized (DMSO control and the baseline) with no further statistical group comparison for the normalized parameters. The variability of the data within the treatment groups was assessed by standard deviation.
# [3] = 72 h, read-out: hsa-miR-7-5p fold change
# [4] = 72 h, read-out: hsa-miR-29a-5p fold change
# [5] = 72 h, read-out: hsa-miR-96-5p fold change
# [6] = 72 h, read-out: hsa-miR-126-3p fold change
# [7] = 72 h, read-out: hsa-miR-133b fold change
# [8] = 72 h, read-out: hsa-miR-146b-5p fold change
# [9] = 72 h, read-out: hsa-miR-182-5p fold change
# [10] = 72 h, read-out: hsa-miR-185-3p fold change
# [11] = 72 h, read-out: hsa-miR-187-3p fold change
# [12] = 72 h, read-out: hsa-miR-208b-3p fold change
# [13] = 72 h, read-out: hsa-miR-365a-5p fold change
# [14] = 72 h, read-out: hsa-miR-[…] change
# [15] = hiPSC-CM, 72-hour treatment, lowest concentration causing at least 20% change from baseline
smiles,measurement,setting,value
CCN[C@@H](C)Cc1cccc(C(F)(F)F)c1 [Dexfenfluramine],fold induction at 0.01 µM,[1]; [3],0.8
same,fold induction at 0.03 µM,[1]; [3],0.8
same,fold induction at 0.1 µM,[1]; [3],0.7
same,fold induction at 0.3 µM,[1]; [3],1
same,fold induction at 0.01 µM,[1]; [4],1.8
same,fold induction at 0.03 µM,[1]; [4],0.8
same,fold induction at 0.3 µM,[1]; [4],0.7
same,fold induction at 0.01 µM,[1]; [5],1.8
same,fold induction at 0.03 µM,[1]; [5],0.8
same,fold induction at 0.3 µM,[1]; [5],0.7
same,fold induction at 0.01 µM,[1]; [6],1.3
same,fold induction at 0.03 µM,[1]; [6],2.3
same,fold induction at 0.1 µM,[1]; [6],0.6
same,fold induction at 0.3 µM,[1]; [6],0.5
same,fold induction at 0.01 µM,[1]; [7],4
same,fold induction at 0.03 µM,[1]; [7],0.7
same,fold induction at 0.1 µM,[1]; [7],0.5
same,fold induction at 0.3 µM,[1]; [7],0.1
same,fold induction at 0.01 µM,[1]; [8],0.5
same,fold induction at 0.03 µM,[1]; [8],0.7
same,fold induction at 0.1 µM,[1]; [8],0.4
same,fold induction at 0.3 µM,[1]; [8],0.7
same,fold induction at 0.01 µM,[1]; [9],0.01
same,fold induction at 0.03 µM,[1]; [9],0.004
same,fold induction at 0.1 µM,[1]; [9],0.003
same,fold induction at 0.3 µM,[1]; [9],0.01
same,fold induction at 0.01 µM,[1]; [10],2.1
same,fold induction at 0.03 µM,[1]; [10],1.2
same,fold induction at 0.1 µM,[1]; [10],1
same,fold induction at 0.3 µM,[1]; [10],0.7
same,fold induction at 0.01 µM,[1]; [11],0.6
same,fold induction at 0.03 µM,[1]; [11],0.7
same,fold induction at 0.1 µM,[1]; [11],0.7
same,fold induction at 0.3 µM,[1]; [11],0.6
same,fold induction at 0.01 µM,[1]; [12],1.1
same,fold induction at 0.03 µM,[1]; [12],1
same,fold induction at 0.1 µM,[1]; [12],0.8
same,fold induction at 0.3 µM,[1]; [12],0.9
same,fold induction at 0.03 µM,[1]; [13],2.6
same,fold induction at 0.3 µM,[1]; [13],8.9
same,fold induction at 0.01 µM,[1]; [14],1.2
same,fold induction at 0.03 µM,[1]; [14],0.9
same,fold induction at 0.1 µM,[1]; [14],0.8
same,fold induction at 0.3 µM,[1]; [14],0.8
same,miRNAs upregulated at the MEC overall (hiPSC-CM pellet),"[1]; fold change ≥2, 72 h","miR-133b, miR-185-3p"
same,"miRNAs hiPSC-CM pellet, MEC overall","[1]; lowest concentration tested which produced miRNA upregulation (fold change ≥2), 72 h",0.01 µM
same,Spike Amplitude (SA) MEC,"[2]; hiPSC-CM, 72-hour treatment, at least 40% change",0.01 µM
same,Beating rate (BR) MEC,[2]; [15],"ND (ND – not detected, magnitude of change was lower than 20%)"
same,Cell index (CI) MEC,[2]; [15],"ND (ND – not detected, magnitude of change was lower than 20%)"
same,"RTCA, MEC (BR)","[2]; hiPSC-CM, change ≥20%, Table 2","ND (ND – not detected, magnitude of change was lower than 20% for CI/BR)"
same,"RTCA, MEC (CI)","[2]; hiPSC-CM, change ≥20%, Table 2","ND (ND – not detected, magnitude of change was lower than 20% for CI/BR)"
O=C1c2c(O)ccc(O)c2C(=O)c2c(NCCNCCO)ccc(NCCNCCO)c21 [Mitoxantrone],"miRNAs hiPSC-CM pellet, MEC overall",[1],0.1 µM
same,miRNAs upregulated at the MEC overall (hiPSC-CM pellet),[1],"miR-96 -5p, miR-146b-5p, miR-182-5p, miR-187-3p, miR-365a-5p"
same,"RTCA, MEC (CI)","[2]; hiPSC-CM, change ≥20%, Table 2","0.1 µM (CI, BR)"
same,Beating Rate MEC,"[2]; human, 72 h",0.1 µM
same,Beating rate (BR) MEC,"[2]; human, 72 h",0.1 µM
same,Contractility Amplitude MEC,"[2]; human, 72 h",0.1 µM
same,Field Potential Duration MEC,"[2]; human, 72 h",0.1 µM
same,"RTCA, MEC (BR)","[2]; human, 72 h","0.1 µM (CI, BR)"
same,Spike Amplitude (SA) MEC,"[2]; human, 72 h",0.1 µM
CC(=O)O[C@H]1C(=O)[C@@]2(C)[C@H]([C@H](OC(=O)c3ccccc3)[C@]3(O)C[C@H](OC(=O)[C@H](O)[C@@H](NC(=O)c4ccccc4)c4ccccc4)C(C)=C1C3(C)C)[C@]1(OC(C)=O)CO[C@@H]1C[C@@H]2O [Paclitaxel],"miRNAs hiPSC-CM pellet, MEC overall",[1],0.3 µM
same,miRNAs upregulated at the MEC overall (hiPSC-CM pellet),[1],"miR-96-5p, miR-133b"
same,"RTCA, MEC (CI)","[2]; hiPSC-CM, change ≥20%, Table 2",0.3 µM
same,Beating Rate MEC,"[2]; human, 72 h",3 µM
same,Beating rate (BR) MEC,"[2]; human, 72 h",3 µM
same,Contractility Amplitude MEC,"[2]; human, 72 h",0.3 µM
same,Field Potential Duration MEC,"[2]; human, 72 h",3 µM
same,"RTCA, MEC (BR)","[2]; human, 72 h",3 µM
same,Spike Amplitude (SA) MEC,"[2]; human, 72 h",3 µM
COc1nc(N)nc2c1ncn2[C@@H]1O[C@H](COP(=O)(N[C@@H](C)C(=O)OCC(C)(C)C)Oc2cccc3ccccc23)[C@@H](O)[C@@]1(C)O (some centres unmarked) [BMS-986094],"intracellular miRNA upregulation in hiPSC-CM, in words",[1],lowest upregulation of miRNAs was detected at the highest concentration tested
same,"miRNAs hiPSC-CM pellet, MEC overall",[1],0.1 µM
same,miRNAs upregulated at the MEC overall (hiPSC-CM pellet),[1],"miR-29a-5p, miR-365a-5p"
same,fold induction at 0.1 µM,[1]; [3],1.7
same,fold induction at 0.3 µM,[1]; [3],1
same,fold induction at 1 µM,[1]; [3],1.3
same,fold induction at 3 µM,[1]; [3],1.3
same,fold induction at 0.1 µM,[1]; [4],6.3
same,fold induction at 0.3 µM,[1]; [4],1
same,fold induction at 1 µM,[1]; [4],1.2
same,fold induction at 3 µM,[1]; [4],0.5
same,fold induction at 0.1 µM,[1]; [6],0.3
same,fold induction at 0.3 µM,[1]; [6],2.9
same,fold induction at 1 µM,[1]; [6],2.8
same,fold induction at 3 µM,[1]; [6],5.2
same,fold induction at 0.1 µM,[1]; [7],1.3
same,fold induction at 0.3 µM,[1]; [7],3.3
same,fold induction at 1 µM,[1]; [7],2
same,fold induction at 3 µM,[1]; [7],1.3
same,fold induction at 0.1 µM,[1]; [8],1.8
same,fold induction at 0.3 µM,[1]; [8],4.2
same,fold induction at 1 µM,[1]; [8],11.3
same,fold induction at 3 µM,[1]; [8],1.4
same,fold induction at 0.1 µM,[1]; [9],1
same,fold induction at 0.3 µM,[1]; [9],8.8
same,fold induction at 1 µM,[1]; [9],7.1
same,fold induction at 3 µM,[1]; [9],5.5
same,fold induction at 0.3 µM,[1]; [10],0.5
same,fold induction at 1 µM,[1]; [10],3.3
same,fold induction at 3 µM,[1]; [10],8.2
same,fold induction at 0.1 µM,[1]; [11],0.5
same,fold induction at 0.3 µM,[1]; [11],2.7
same,fold induction at 1 µM,[1]; [11],8.8
same,fold induction at 0.1 µM,[1]; [12],1.7
same,fold induction at 0.3 µM,[1]; [12],1.3
same,fold induction at 1 µM,[1]; [12],1.1
same,fold induction at 3 µM,[1]; [12],1
same,fold induction at 0.1 µM,[1]; [13],2.2
same,fold induction at 0.3 µM,[1]; [13],0.7
same,fold induction at 1 µM,[1]; [13],1.3
same,fold induction at 3 µM,[1]; [13],0.7
same,Beating Rate MEC,"[2]; human, 72 h",0.048 µM
same,"RTCA, MEC (BR)","[2]; human, 72 h",0.048 µM
same,Spike Amplitude (SA) MEC,"[2]; human, 72 h",0.16 µM
